Where two headings read alike, the source gives them in different places.

The results in this text go back to patent US10219516B2, “Molecules having pesticidal utility, and intermediates, compositions, and processes, related thereto” (priority 2015, dated 2019).

Holding throughout (assay type): in vivo
The test system of test [1] is Cabbage Looper (Trichoplusia ni, TRIPNI). Put plainly: Bioassay on Cabbage Looper (CL), 128-well diet tray assay. Conditions: Trichoplusia ni. In short, it runs like this: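 Test molecule is dissolved in 90:10 acetone-water and applied at 50 μg/cm^2 onto artificial diet, then dried. One to five second-instar larvae go into each of eight wells. Trays, sealed but vented, stay at 25° C., 14:10 light-dark, five to seven days, after which mortality is averaged.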

Test [2] deals with Green Peach Aphid (Myzus persicae, MYZUPE). Put plainly: Bioassay on Green Peach Aphid (GPA), foliar spray on infested cabbage seedlings. Conditions: 72 h. The procedure, abridged: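 Cabbage seedlings (2-3 true leaves) infested with 20-50 wingless adult and nymph aphids one day before treatment; sprayed to runoff at 200 ppm in 0.025% Tween 20 water with 20% acetone/methanol, four pots per treatment. Held three days at about 25° C; live aphids counted, % control by Abbott's correction versus solvent check.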

In test [3] the test system is Beet Armyworm (Spodoptera exigua, LAPHEG). Put plainly: Bioassay on Beet Armyworm (BAW), 128-well diet tray assay. In short, it runs like this: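 In a 128-well format, eight wells per compound received a surface dose of 50 μg/cm^2 on artificial diet. After drying, each well got one to five second instar larvae, held at 25° C. with 14:10 photoperiod. Mortality percentages after five to seven days were averaged.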

The subject of test [4] is Yellow Fever Mosquito (Aedes aegypti, AEDSAE). Put plainly: Bioassay on Yellow Fever Mosquito (YFM), 96-well plate larval assay. Conditions: for YFM rating: Yellow Fever Mosquito, 96-well plate larval assay; for YFM (Biological Results, rating): Species YFM (Yellow Fever Mosquito). The procedure, abridged: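 Each well was scored for mortality after 3 days at room temperature under a non-evaporative lid. Test molecules came from DMSO masters (4000 ppm stock) diluted with water/acetone 90:10 and dispensed into six replicate plates, which were then infested with roughly 1-day-old larvae in liver-powder water.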

Setting [5] is: Cabbage Looper, 128-well diet tray assay, read-out: CL rating.
Setting [6] is: Green Peach Aphid, foliar spray on cabbage seedlings, read-out: GPA rating.
The mark [7] stands for this setting: Beet Armyworm, 128-well diet tray assay, read-out: BAW rating.
Setting [8] is: Species CL (Cabbage Looper), read-out: CL (Biological Results, rating).
Where [9] appears, read: foliar, Species GPA (Green Peach Aphid), read-out: GPA (Biological Results, rating).
[10] abbreviates: Species BAW (Beet Armyworm), read-out: BAW (Biological Results, rating).

Consider `O=C(Nc1ccc2ncsc2c1)c1cc(NC(=O)C2C(c3cc(Cl)cc(Cl)c3)C2(Cl)Cl)ccc1Cl` (stereo not drawn) [F434, N-(Benzo[d]thiazol-6-yl)-2-chloro-5-(trans)-2,2-dichloro-3-(3,5-dichlorophenyl)cyclopropane-1-carboxamido)benzamide], for which the pest or weed control at 50 µg/cm2 in test [1] (setting [5]) and in test [3] (setting [7]) was 50 to 100% throughout. The pest or weed control at 200 µg/mL in test [2] (setting [6]) lay in the range of 0 to 80%. In test [4], the YFM rating entry was “A (80-100)”.
As for `O=C(Nc1ccc(F)cc1)c1cc(NC(=O)[C@H]2[C@H](c3cc(Cl)cc(C(F)(F)F)c3)C2(Cl)Cl)ccc1Cl` (relative stereo) [F87, trans-2-Chloro-5-(2,2-dichloro-3-(3-chloro-5-(trifluoromethyl)phenyl)cyclopropane-1-carboxamido)-N-(4-fluorophenyl)benzamide], the pest or weed control at 50 µg/cm2 in test [1] (setting [8]) and in test [3] (setting [10]) was 50 to 100% in each case. Besides, the pest or weed control at 200 µg/mL in test [2] (setting [9]) fell in the range of 80 to 100%. In addition, the “YFM (Biological Results, rating)” value in test [4] is recorded as “A (80-100)”.
As to `O=C(Nc1ccc(F)cc1F)c1cc(NC(=O)[C@H]2[C@H](c3ccc(Cl)c(Cl)c3)C2(Cl)Cl)ccc1Cl` (relative stereo) [F39, trans-2-Chloro-5-(2,2-dichloro-3-(3,4-dichlorophenyl)cyclopropane-1-carboxamido)-N-(2,4-difluorophenyl)benzamide], the pest or weed control at 50 µg/cm2 in test [1] (setting [8]) and in test [3] (setting [10]) was 50 to 100% each time. For the same compound, in test [2] (setting [9]), the pest or weed control at 200 µg/mL was in the range of 80 to 100%. In addition, the “YFM (Biological Results, rating)” value in test [4] is reported as “A (80-100)”.
With `O=C(Nc1ccncc1)c1cc(NC(=O)[C@H]2[C@H](c3cc(Cl)cc(Cl)c3)C2(Cl)Cl)ccc1Cl` (relative stereo) [F26, trans-2-Chloro-5-(2,2-dichloro-3-(3,5-dichlorophenyl)cyclopropane-1-carboxamido)-N-(pyridin-4-yl)benzamide], the pest or weed control at 50 µg/cm2 in test [1] (setting [8]) and in test [3] (setting [10]) was 50 to 100% in each case. Besides, the pest or weed control at 200 µg/mL in test [2] (setting [9]) was in the range of 0 to 80%. Also, the “YFM (Biological Results, rating)” value in test [4] is “A (80-100)”.
`O=C(Nc1ccc(F)cc1F)c1cc(NC(=O)[C@H]2[C@H](c3cc(F)cc(C(F)(F)F)c3)C2(Cl)Cl)ccc1Cl` (relative stereo) [F412, 2-Chloro-5-(trans)-(2,2-dichloro-3-(3-fluoro-5-(trifluoromethyl)phenyl)cyclopropane-1-carboxamido)-N-(2,4-difluorophenyl)benzamide]: the pest or weed control at 50 µg/cm2 in test [1] (setting [5]) and in test [3] (setting [7]) was 50 to 100% throughout. Besides, the pest or weed control at 200 µg/mL in test [2] (setting [6]) fell in the range of 80 to 100%. The YFM rating entry in test [4] is “A (80-100)”.
Regarding `Cc1cc(C#N)ccc1NC(=O)c1cc(NC(=O)[C@H]2[C@H](c3cc(Cl)c(Cl)c(Cl)c3)C2(Cl)Cl)ccc1Cl` (relative stereo) [F54, trans-2-Chloro-N-(4-cyano-2-methylphenyl)-5-(2,2-dichloro-3-(3,4,5-trichlorophenyl)cyclopropane-1-carboxamido)benzamide], the pest or weed control at 50 µg/cm2 in test [1] (setting [8]) and in test [3] (setting [10]) was 50 to 100% throughout. In test [2] (setting [9]), the pest or weed control at 200 µg/mL fell in the range of 0 to 80%. Further, the “YFM (Biological Results, rating)” value in test [4] is “A (80-100)”.
With `O=C(Nc1cnc2[nH]ccc2c1)c1cc(NC(=O)[C@H]2[C@H](c3cc(Cl)cc(Cl)c3)C2(Cl)Cl)ccc1Cl` (relative stereo) [F481, 2-Chloro-5-(trans)-(2,2-dichloro-3-(3,5-dichlorophenyl)cyclopropane-1-carboxamido)-N-(1H-pyrrolo[2,3-b]pyridin-5-yl)benzamide], the pest or weed control at 50 µg/cm2 in test [1] (setting [5]) and in test [3] (setting [7]) was 50 to 100% in each case. Further, the pest or weed control at 200 µg/mL in test [2] (setting [6]) fell in the range of 0 to 80%. For the same compound, in test [4], the YFM rating entry is “A (80-100)”.
`O=C(Nc1ccccc1)c1cc(NC(=O)[C@H]2[C@H](c3cc(Cl)cc(Cl)c3)C2(Cl)Cl)ccc1Cl` (relative stereo) [F16, trans-2-Chloro-5-(2,2-Dichloro-3-(3,5-dichlorophenyl)cyclopropane-1-carboxamido)-N-phenylbenzamide]: the pest or weed control at 50 µg/cm2 in test [1] (setting [8]) and in test [3] (setting [10]) was 50 to 100% throughout. Besides, in test [2] (setting [9]), the pest or weed control at 200 µg/mL was in the range of 0 to 80%. In addition, in test [4], the “YFM (Biological Results, rating)” value was “A (80-100)”.
Regarding `Cc1cc(F)ccc1NC(=O)c1cc(NC(=O)[C@H]2[C@H](c3cc(Cl)cc(Cl)c3)C2(Cl)Cl)ccc1Cl` (relative stereo) [F37, trans-2-Chloro-5-(2,2-dichloro-3-(3,5-dichlorophenyl)cyclopropane-1-carboxamido)-N-(4-fluoro-2-methylphenyl)benzamide], the pest or weed control at 50 µg/cm2 in test [1] (setting [8]) and in test [3] (setting [10]) was 50 to 100% in each case. The pest or weed control at 200 µg/mL in test [2] (setting [9]) lay within 80 to 100%. Besides, the “YFM (Biological Results, rating)” value in test [4] is “A (80-100)”.
For the compound `O=C(Nc1ccc2nc(Cl)[nH]c2c1)c1cc(NC(=O)C2C(c3cc(Cl)cc(Cl)c3)C2(Cl)Cl)ccc1Cl` (stereo not drawn) [F438, 2-Chloro-N-(2-chloro-1H-benzo[d]imidazol-6-yl)-5-(trans)-2,2-dichloro-3-(3,5-dichlorophenyl)cyclopropane-1-carboxamido)benzamide], the pest or weed control at 50 µg/cm2 in test [1] (setting [5]) and in test [3] (setting [7]) was 50 to 100% in each case. In addition, the pest or weed control at 200 µg/mL in test [2] (setting [6]) fell in the range of 0 to 80%. Further, in test [4], the YFM rating entry is listed as “B (More than 0-Less than 80)”.
`Nc1c(F)ccc(NC(=O)c2cc(NC(=O)[C@H]3[C@H](c4ccc(Cl)c(Br)c4)C3(Cl)Cl)ccc2Cl)c1F` [F579, N-(3-Amino-2,4-difluorophenyl)-5-((1R,3R)-3-(3-bromo-4-chlorophenyl)-2,2-dichlorocyclopropane-1-carboxamido)-2-chlorobenzamide]: the pest or weed control at 50 µg/cm2 in test [1] (setting [5]) and in test [3] (setting [7]) was 50 to 100% each time. Moreover, the pest or weed control at 200 µg/mL in test [2] (setting [6]) lay within 80 to 100%. Also, the YFM rating entry in test [4] was “A (80-100)”.
`O=C(Nc1cccnc1Cl)c1cc(NC(=O)[C@H]2[C@H](c3cc(Cl)cc(Cl)c3)C2(Cl)Cl)ccc1Cl` (relative stereo) [F31, trans-2-Chloro-N-(2-chloropyridin-3-yl)-5-(2,2-dichloro-3-(3,5-dichlorophenyl)cyclopropane-1-carboxamido)benzamide]: the pest or weed control at 50 µg/cm2 in test [1] (setting [8]) and in test [3] (setting [10]) was 50 to 100% throughout. The pest or weed control at 200 µg/mL in test [2] (setting [9]) was in the range of 80 to 100%. In addition, in test [4], the “YFM (Biological Results, rating)” value is given as “A (80-100)”.
Regarding `N#Cc1ccc(NC(=O)c2cc(NC(=O)[C@H]3[C@H](c4cc(Cl)cc(Cl)c4)C3(Cl)Cl)ccc2Cl)cn1` (relative stereo) [F33, trans-2-Chloro-N-(6-cyanopyridin-3-yl)-5-(2,2-dichloro-3-(3,5-dichlorophenyl)cyclopropane-1-carboxamido)benzamide], the pest or weed control at 50 µg/cm2 in test [1] (setting [8]) and in test [3] (setting [10]) was 50 to 100% each time. Moreover, in test [2] (setting [9]), the pest or weed control at 200 µg/mL is 0 to 80%. For the same compound, the “YFM (Biological Results, rating)” value in test [4] is “A (80-100)”.
For `O=C(Nc1ccc(F)cc1C(F)(F)F)c1cc(NC(=O)[C@H]2[C@H](c3cc(Cl)cc(Cl)c3)C2(Cl)Cl)ccc1Cl` (relative stereo) [PF69, trans-2-chloro-5-(2,2-dichloro-3-(3,5-dichlorophenyl)cyclopropane-1-carboxamido)-N-(4-fluoro-2-(trifluoromethyl)phenyl)benzamide], the pest or weed control at 50 µg/cm2 in test [1] (setting [5]) and in test [3] (setting [7]) was 50 to 100% throughout. Also, in test [2] (setting [6]), the pest or weed control at 200 µg/mL was 80 to 100%. Also, the YFM rating result in test [4] is listed as “B (More than 0-Less than 80)”.
For the compound `O=C(Nc1ccc(F)cc1)c1cc(NC(=O)[C@H]2[C@H](c3ccc(Cl)c(Cl)c3)C2(Cl)Cl)ccc1F` (relative stereo) [F28, trans-5-(2,2-Dichloro-3-(3,4-dichlorophenyl)cyclopropane-1-carboxamido)-2-fluoro-N-(4-fluorophenyl)benzamide], the pest or weed control at 50 µg/cm2 in test [1] (setting [8]) and in test [3] (setting [10]) was 50 to 100% throughout. The pest or weed control at 200 µg/mL in test [2] (setting [9]) fell in the range of 80 to 100%. Also, the “YFM (Biological Results, rating)” value in test [4] was “A (80-100)”.
As to `O=C(Nc1ccc(F)cc1)c1cc(NC(=O)[C@H]2[C@H](c3cc(Cl)cc(Cl)c3)C2(Cl)Cl)ccc1F` (relative stereo) [F129, trans-5-(2,2-Dichloro-3-(3,5-dichlorophenyl)cyclopropane-1-carboxamido)-2-fluoro-N-(4-fluorophenyl)benzamide], the pest or weed control at 50 µg/cm2 in test [1] (setting [8]) and in test [3] (setting [10]) was 50 to 100% each time. For the same compound, the pest or weed control at 200 µg/mL in test [2] (setting [9]) is 80 to 100%. Also, the “YFM (Biological Results, rating)” value in test [4] was “A (80-100)”.
As to `O=C(Nc1ccc(F)cc1)c1cc(NC(=O)[C@H]2[C@H](c3cc(Cl)cc(Cl)c3)C2(Cl)Cl)ccc1Cl` [F165, 2-Chloro-5-((1R,3R)-2,2-dichloro-3-(3,5-dichlorophenyl)cyclopropane-1-carboxamido)-N-(4-fluorophenyl)benzamide], the pest or weed control at 50 µg/cm2 in test [1] (setting [8]) and in test [3] (setting [10]) was 50 to 100% throughout. Moreover, the pest or weed control at 200 µg/mL in test [2] (setting [9]) lay in the range of 80 to 100%. Further, the “YFM (Biological Results, rating)” value in test [4] is “B (More than 0-Less than 80)”.
